Assay results published in patent US20160251342A1, “ALDEHYDE DERIVATIVE OF SUBSTITUTED OXAZOLIDINONES” (WANBURY LTD., priority 2012, published 2016).
Blank lines part the entries; values can stand above or below the molecule they belong to.

Legend:
[1] = In vitro liver microsomal stability assay, rat; format: in vitro ADME; conditions: rat microsomes; for % Parent remaining (rat): rivaroxaban itself incubated
Protocol: (§1) Liver microsomal stability assays are conducted at 1 mg per mL liver microsome protein with an NADPH in phosphate buffer (100 mM, pH 7.4). Test compounds (compound of formula B of the invention) are prepared as solutions in 20% methanol-water and added to the assay mixture (final assay concentration 1 μM) and incubated at 37° C. Aliquots (100 .μ.L) are taken out at times 0, 15, and 30 minutes, and diluted with ice cold acetonitrile containing IS (200 µL) to stop the reactions. Samples are centrifuged at 10,000 RPM for 5 minutes to precipitate proteins. Supernatants are transferred to micro centrifuge tubes and stored at −20° C. for analysis of LC/MS/MS. The percent parent remaining of the test substance is calculated as Ratio of peak area at each time point to peak area ratio at zero min, multiplied by 100. The compound formula (B) is converted to Rivaroxaban in microsomal assay.

thrombus formation [2] = assay: Arterial thrombosis model (rat); format: in vivo, rats (strain: Wistar); conditions: for ED50: Rattus norvegicus, arterial thrombosis, read-out: ED-50 to inhibit the thrombus formation
Protocol: Male fasting rats (strain: Wistar) having a weight 280-320 g were anaesthetized using isoflurane/oxygen. The left carotid artery was exposed (about 2 cm). The formation of an arterial thrombus was induced by mechanical injury to the blood vessel in accordance with the method described by K. Meng et al., Naunyn-Schmiedeberg's Arch. Pharmacol. (1977), 301, 115-119. To this end, the exposed carotid artery was clamped from the blood flow, cooled to -20° C. in a metal trough for 2 minutes and, to standardize the size of the thrombi, simultaneously compressed using a weight of 200 g. […] The proximal clamp was removed, and the wound was closed and re-opened after 2 hours to remove the injured section of the vessel. The section of the vessel was opened longitudinally and the thrombus was removed from the injured section of the vessel. The moist weight of the thrombi was determined immediately. […] Animals were grouped by body weight stratification and randomization (Represented by G1-[…]). The grouping was done one day prior to the experiment initiation.

thrombus formation [3] = assay: Venous thrombosis model (rat); format: in vivo, rats (strain: Wistar); conditions: for ED50: Rattus norvegicus, venous thrombosis, per oral, read-out: ED-50 to inhibit the thrombus formation; for Mean thrombus weight (mg) (±SEM): per oral 120 minutes before induction, vehicle 4.36 ± 0.58
Protocol: Male fasting rats (strain: Wistar) having a weight 280-320 g were anaesthetized using isoflurane/oxygen. The left jugular vein was exposed (about 2 cm). The formation of a venous thrombus was induced by mechanical injury to the blood vessel in accordance with the method described by K. Meng, et al., Naunyn-Schmiedeberg's Arch. Pharmacol. (1977), 301, 115-119. To this end, the jugular vein was clamped from the blood flow, cooled to -12° C. in a metal trough for 2 minutes and, to standardize the size of the thrombi, simultaneously compressed using a weight of 200 g. The blood flow was re-opened and the wound was closed. After 4 hours, the wound was re-opened to remove the thrombi from the injured sections of the vessel. The moist weight of the thrombi was determined immediately. […] Animals were grouped by body weight stratification and randomization (Represented by G12-[…]). The grouping was done one day prior to the experiment initiation.

[4] = In vitro liver microsomal stability assay, mouse; format: in vitro ADME; conditions: mouse microsomes
Protocol: as §1

[5] = In vitro stability in mouse plasma (LC-MS); format: in vitro ADME; conditions: for % Parent remaining (Mouse): rivaroxaban itself incubated
Protocol: The final concentration of the test compound in the assay is 5 micromolar. […] C. The 100 microlitres of aliquot at time point was removed and diluted with ice cold acetonitrile containing IS (200 µL) to stop the reactions. Samples are centrifuged at 10,000 RPM for 5 minutes to precipitate proteins. Supernatants are transferred to micro centrifuge tubes and stored at −20° C. for analysis of LC/MS/MS. The percent parent remaining of the test substance is calculated as ratio of peak area at each time point to peak area ratio at zero min, multiplied by 100.
API 4000, ESI Agilent 1100 column: Gemini Nx 100 mm×4.6 mm 5.μ; column temperature: 30° C.; eluent A: 0.1% formic acid in water, eluent B: acetonitrile; gradient: 0-2.5 min 95% A, 5% B; 2.5-2.6 min 5% A, 95% B; 2.6-4.2 min 95% A, 5% B; flow rate: 0.8 ml/min; ESI. Q1:464.098, Q3:144.255

[6] = In vitro liver microsomal stability assay, human; format: in vitro ADME; conditions: human microsomes; for % Parent remaning (Human): rivaroxaban itself incubated
Protocol: as §1

thrombus formation [7] = assay: Arteriovenous shunt model (rat); format: in vivo, rats (strain: Wistar); conditions: for ED50: Rattus norvegicus, arteriovenous shunt, read-out: ED-50 to inhibit the thrombus formation
Description: Fasting male rats (strain: Wistar) having a weight of 280-320 g were anaesthetized using a isoflurane/oxygen. Thrombus formation was initiated in an arteriovenous shunt in accordance with the method described by Christopher N. Berry et al., Br. J. Pharmacol. (1994), 113, 1209-1214. To this end, the left jugular vein and the right carotid artery were exposed. The two vessels were connected by an extracorporeal shunt using a 10 cm long Poly Vinyl Chloride tube (.P.V.C.) 9 internal diameter i.d. 0.5 mm), in middle of PVC tubing a 5 cm Scalp vein tube (i.d. 1.5 mm) will be attached which contained a 3 cm long roughened surface nylon thread which will be arranged to form a loop to form a thrombogenic surface. The extracorporeal circulation was maintained for 15 minutes. The shunt was then removed and the nylon thread with the thrombus was weighed immediately. The weight of the nylon thread on its own had been determined before the experiment was started. Before the extracorporeal circulation was set up, The test item [compound formula (B) (Wanxaban)/reference item (Rivaroxaban)/vehicle will be administered to the animals as per routes preferred. Animals were grouped by body weight stratification and randomization (Represented by G1-[…]). The grouping was done one day prior to the experiment initiation.

[8] = intravenous 5 minutes before induction, Dose 0.5, vehicle 2.08 ± 0.47
[9] = intravenous 5 minutes before induction, Dose 1, vehicle 2.08 ± 0.47
[10] = intravenous 5 minutes before induction, Dose 2, vehicle 2.08 ± 0.47
[11] = intravenous 5 minutes before induction, Dose 3, vehicle 2.08 ± 0.47
[12] = intravenous 5 minutes before induction, Dose 4, vehicle 2.08 ± 0.47
[13] = per oral 120 minutes before induction, Dose 2.5, vehicle 1.70 ± 0.39
[14] = per oral 120 minutes before induction, Dose 5.0, vehicle 1.70 ± 0.39
[15] = per oral 120 minutes before induction, Dose 10, vehicle 1.70 ± 0.39
[16] = per oral 120 minutes before induction, Dose 15, vehicle 1.70 ± 0.39
[17] = per oral 120 minutes before induction, Dose 20, vehicle 1.70 ± 0.39
[18] = intravenous, Dose 0.5, vehicle 27.26 ± 1.23
[19] = intravenous, Dose 1, vehicle 27.26 ± 1.23
[20] = intravenous, Dose 2, vehicle 27.26 ± 1.23
[21] = intravenous, Dose 3, vehicle 27.26 ± 1.23
[22] = intravenous, Dose 4, vehicle 27.26 ± 1.23
[23] = per oral, Dose 2.5, vehicle 26.95 ± 1.23
[24] = per oral, Dose 5, vehicle 26.95 ± 1.23
[25] = per oral, Dose 10, vehicle 26.95 ± 1.23
[26] = per oral, Dose 15, vehicle 26.95 ± 1.23
[27] = per oral, Dose 20, vehicle 26.95 ± 1.23

Observation: metabolism ([1]; rivaroxaban itself): High
% Parent remaining (rat) ([1]; 0 min): 100%
% Parent remaining (rat) ([1]; 15 min): 0.01%
% Parent remaining (rat) ([1]; 30 min): 0.02%
Observation: metabolism ([4]; rivaroxaban itself): High
Conversion summary: unchanged, stable in plasma ([5]; rivaroxaban itself): unchanged,
% Parent remaining (Mouse) ([5]; 0 min): 100%
% Parent remaining (Mouse) ([5]; 30 min): 100%
% Parent remaining (Mouse) ([5]; 60 min): 100%
% Parent remaning (Human) ([6]; 0 min): 100%
% Parent remaning (Human) ([6]; 15 min): 0.01%
% Parent remaning (Human) ([6]; 30 min): 0.01%
SMILES: O=C(NC[C@H]1CN(c2ccc(N3CCOCC3=O)cc2)C(=O)O1)c1ccc(Cl)s1 [Rivaroxaban, 5-chloro-N-({(5S)-2-oxo-3-[4-(3-oxomorpholin-4-yl)phenyl]-1,3-oxazolidin-5-yl}methyl)thiophene-2-carboxamide, reference compound]
ED50 (thrombus formation [2]; intravenous): 2.5 mg/kg
ED50 (thrombus formation [2]; per oral): 24.2 mg/kg
Mean thrombus weight (mg) (±SEM) (thrombus formation [2]; [8]): 1.10 ± 0.32 mg
Mean thrombus weight (mg) (±SEM) (thrombus formation [2]; [9]): 0.62 ± 0.08 mg
Mean thrombus weight (mg) (±SEM) (thrombus formation [2]; [10]): 0.70 ± 0.11 mg
Mean thrombus weight (mg) (±SEM) (thrombus formation [2]; [11]): 0.41 ± 0.05 mg
Mean thrombus weight (mg) (±SEM) (thrombus formation [2]; [12]): 0.34 ± 0.08 mg
Mean thrombus weight (mg) (±SEM) (thrombus formation [2]; [13]): 1.71 ± 0.45 mg
Mean thrombus weight (mg) (±SEM) (thrombus formation [2]; [14]): 1.78 ± 0.66 mg
Mean thrombus weight (mg) (±SEM) (thrombus formation [2]; [15]): 0.84 ± 0.23 mg
Mean thrombus weight (mg) (±SEM) (thrombus formation [2]; [16]): 0.78 ± 0.14 mg
Mean thrombus weight (mg) (±SEM) (thrombus formation [2]; [17]): 0.65 ± 0.10 mg
ED50 (thrombus formation [3]): 12.3 mg/kg
Mean thrombus weight (mg) (±SEM) (thrombus formation [3]; Dose 2.5): 2.93 ± 0.50 mg
Mean thrombus weight (mg) (±SEM) (thrombus formation [3]; Dose 5.0): 2.06 ± 0.73 mg
Mean thrombus weight (mg) (±SEM) (thrombus formation [3]; Dose 10): 2.06 ± 0.53 mg
Mean thrombus weight (mg) (±SEM) (thrombus formation [3]; Dose 15): 1.43 ± 0.46 mg
Mean thrombus weight (mg) (±SEM) (thrombus formation [3]; Dose 20): 1.66 ± 0.74 mg
ED50 (thrombus formation [7]; intravenous): 1.7 mg/kg
ED50 (thrombus formation [7]; per oral): 26.2 mg/kg
Mean thrombus weight (mg) (±SEM) (thrombus formation [7]; [18]): 13.95 ± 1.49 mg
Mean thrombus weight (mg) (±SEM) (thrombus formation [7]; [19]): 10.84 ± 1.16 mg
Mean thrombus weight (mg) (±SEM) (thrombus formation [7]; [20]): 10.83 ± 1.11 mg
Mean thrombus weight (mg) (±SEM) (thrombus formation [7]; [21]): 6.92 ± 0.57 mg
Mean thrombus weight (mg) (±SEM) (thrombus formation [7]; [22]): 7.56 ± 0.59 mg
Mean thrombus weight (mg) (±SEM) (thrombus formation [7]; [23]): 19.2 ± 0.2 mg
Mean thrombus weight (mg) (±SEM) (thrombus formation [7]; [24]): 17.26 ± 0.75 mg
Mean thrombus weight (mg) (±SEM) (thrombus formation [7]; [25]): 15.41 ± 1.25 mg
Mean thrombus weight (mg) (±SEM) (thrombus formation [7]; [26]): 16.9 ± 0.49 mg
Mean thrombus weight (mg) (±SEM) (thrombus formation [7]; [27]): 9.7 ± 1.34 mg

Amount of test product detected (metabolised to rivaroxaban from zero min) [1]: min. Neglible
Amount of test product detected (metabolised to rivaroxaban from zero min) [4]: min. Neglible
Amount of test product detected (conversion to rivaroxaban from zero min) [5]: min. Neglible
Amount of test product detected (metabolised to rivaroxaban from zero min) [6]: Neglible
SMILES: O=CN(C[C@H]1CN(c2ccc(N3CCOCC3=O)cc2)C(=O)O1)C(=O)c1ccc(Cl)s1 [compound formula (B), 5-chloro-N-formyl-N-({(5S)-2-oxo-3-[4-(3-oxomorpholin-4-yl)phenyl]-1,3-oxazolidin-5-yl}methyl)thiophene-2-carboxamide]
ED50 (thrombus formation [2]; intravenous): 0.5 mg/kg
ED50 (thrombus formation [2]; per oral): 4 mg/kg
Mean thrombus weight (mg) (±SEM) (thrombus formation [2]; [8]): 1.32 ± 0.17 mg
Mean thrombus weight (mg) (±SEM) (thrombus formation [2]; [9]): 0.60 ± 0.09 mg
Mean thrombus weight (mg) (±SEM) (thrombus formation [2]; [10]): 0.61 ± 0.09 mg
Mean thrombus weight (mg) (±SEM) (thrombus formation [2]; [11]): 0.47 ± 0.05 mg
Mean thrombus weight (mg) (±SEM) (thrombus formation [2]; [12]): 0.36 ± 0.03 mg
Mean thrombus weight (mg) (±SEM) (thrombus formation [2]; [13]): 1.15 ± 0.13 mg
Mean thrombus weight (mg) (±SEM) (thrombus formation [2]; [14]): 0.71 ± 0.04 mg
Mean thrombus weight (mg) (±SEM) (thrombus formation [2]; [15]): 0.78 ± 0.14 mg
Mean thrombus weight (mg) (±SEM) (thrombus formation [2]; [16]): 0.58 ± 0.11 mg
Mean thrombus weight (mg) (±SEM) (thrombus formation [2]; [17]): 0.44 ± 0.04 mg
ED50 (thrombus formation [3]): 1.9 mg/kg
Mean thrombus weight (mg) (±SEM) (thrombus formation [3]; Dose 2.5): 3.81 ± 1.55 mg
Mean thrombus weight (mg) (±SEM) (thrombus formation [3]; Dose 5.0): 1.60 ± 0.10 mg
Mean thrombus weight (mg) (±SEM) (thrombus formation [3]; Dose 10): 0.66 ± 0.09 mg
Mean thrombus weight (mg) (±SEM) (thrombus formation [3]; Dose 15): 0.53 ± 0.18 mg
Mean thrombus weight (mg) (±SEM) (thrombus formation [3]; Dose 20): 0.62 ± 0.16 mg
ED50 (thrombus formation [7]; intravenous): 1 mg/kg
ED50 (thrombus formation [7]; per oral): 22.8 mg/kg
Mean thrombus weight (mg) (±SEM) (thrombus formation [7]; [18]): 18.7 ± 1.22 mg
Mean thrombus weight (mg) (±SEM) (thrombus formation [7]; [19]): 13.99 ± 2 mg
Mean thrombus weight (mg) (±SEM) (thrombus formation [7]; [20]): 8.45 ± 0.75 mg
Mean thrombus weight (mg) (±SEM) (thrombus formation [7]; [21]): 5.83 ± 0.31 mg
Mean thrombus weight (mg) (±SEM) (thrombus formation [7]; [22]): 4.81 ± 0.31 mg
Mean thrombus weight (mg) (±SEM) (thrombus formation [7]; [23]): 3.81 ± 1.55 mg
Mean thrombus weight (mg) (±SEM) (thrombus formation [7]; [24]): 1.60 ± 0.10 mg
Mean thrombus weight (mg) (±SEM) (thrombus formation [7]; [25]): 0.66 ± 0.09 mg
Mean thrombus weight (mg) (±SEM) (thrombus formation [7]; [26]): 0.53 ± 0.18 mg
Mean thrombus weight (mg) (±SEM) (thrombus formation [7]; [27]): 0.62 ± 0.16 mg
